We go through 13 compounds from PubChem BioAssay (NCI).

Assay in all cases: growth of human tumour cells (NCI), 48 h
In assay [1] the test system is 786-0 renal.
The test system of assay [2] is CCRF-CEM leukemia.
Assay [3] concerns K-562 leukemia.
For assay [4], the system named is M19-MEL melanoma.
Assay [5] has as its system SK-MEL-28 melanoma.
Assay [6] has as its system SN12C renal.
For assay [7], the system named is SNB-19 CNS.
For assay [8], the system named is MDA-MB-231 breast.

“And” between values parts separate entries of the source, which are not always exact repeats. Equal entries are not always repeated.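 Test compounds were applied to cells in 96-well plates for 48 hours at 5 doses. At the GI50, growth is halved. TGI marks complete inhibition of growth.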

Regarding `COc1nc2c(OC)cccc2c(OC)c1C=O`, the TGI in assay [1], in assay [2], in assay [3], in assay [4], in assay [5] and in assay [6] was over 100 µM throughout. In assay [7], this compound had a TGI of over 100 µM.

For `Oc1cccc2c1NC1=C(CCC/C1=C\c1ccccc1)C2`, the TGI in assay [1], in assay [2], in assay [3], in assay [4], in assay [5] and in assay [7] was over 100 µM in each case.

Take `CCNC(=O)C[C@@H]1N=C(c2ccc(Cl)cc2)c2cc(OC)ccc2-n2c(C)nnc21`: the GI50 in assay [1] is 16.4 µM; in assay [2] it was 7.44 µM; in assay [3], 4.18 µM; in assay [8], 2.76 µM; in assay [5], 11.2 µM; in assay [6] it was 15.5 µM. Also, the GI50 in assay [7] was 5.11 µM. Further, the TGI in assay [1], in assay [2], in assay [3], in assay [8], in assay [5] and in assay [6] was over 100 µM each time. Besides, the TGI in assay [7] is over 100 µM.

On to `Cc1ccc(Nc2nc(NCCO)c3ccccc3n2)cc1C`, for which the GI50 in assay [1] is 6.94 µM; in assay [2], 4.57 µM; in assay [3], 3.19 µM; in assay [8], 4.22 µM; in assay [5], 6.47 µM; in assay [6], 10.3 µM. Also, in assay [7], the GI50 was 11.5 µM. The TGI is 20.1 µM in assay [1]; 18.6 µM in assay [2]; 13 µM in assay [3]; 16.1 µM in assay [8]; 20.1 µM in assay [5]; 24.4 µM in assay [6]. This compound also showed a TGI in assay [7] of 24.8 µM.

On to `CC/C=C\C[C@H](O)C/C=C1/C(=O)C=C[C@@H]1C/C=C\CCCC(=O)NC(C)C`, for which the GI50 was 2.47 µM in assay [1]; 2.09 µM in assay [2]; 2.86 µM in assay [3]; 4.72 µM in assay [8]; 2.14 µM in assay [5]; 2.51 µM in assay [6]. Moreover, the GI50 in assay [7] was 8.75 µM. Moreover, the TGI in assay [1] amounted to 5.4 µM; in assay [2], 8.38 µM; in assay [3] it was 38.9 µM; in assay [8] it was 16.7 µM; in assay [5], 4.98 µM; in assay [6], 6.35 µM. The TGI in assay [7] worked out at 22.6 µM.

In the case of `Cn1c(C(N)=O)cc2c1-c1nc(Nc3ccccc3)ncc1CCC2`, the GI50 in assay [1] is 4.55 µM; in assay [2], 6.21 µM; in assay [3], 4.65 µM; in assay [8], 5.59 µM; in assay [5], 8.74 µM; in assay [6], 4.18 µM. In addition, in assay [7], the GI50 is 11.5 µM. Further, the TGI in assay [1] is 34.5 µM; in assay [2], over 100 µM; in assay [3] it was over 100 µM; in assay [8], over 100 µM; in assay [5], 61.1 µM; in assay [6] it was over 100 µM. Moreover, in assay [7], the TGI was over 100 µM.

For `C=C1C(=O)O[C@H]2[C@H]1CC/C(COC(=O)C(=O)c1c[nH]c3ccccc13)=C\CC[C@@]1(C)O[C@@H]21`, the GI50 in assay [1] is 1.84 µM; in assay [2], 1.27 µM; in assay [3] it was 2.28 µM; in assay [8], 2.46 µM; in assay [5], 2.02 µM; in assay [6], 2.72 µM. In assay [7], the GI50 is 10.6 µM. Further, the TGI in assay [1] is 3.72 µM; in assay [2], 13.1 µM; in assay [3], 9.5 µM; in assay [8] it was 5.5 µM; in assay [5], 4.23 µM; in assay [6], 7.11 µM. For the same compound, in assay [7], the TGI was 26 µM.

For `Cc1ccc(NC(c2ccccc2)c2ccc3cccnc3c2O)cc1` (stereo not drawn), the TGI in assay [1] turned out to be 15.1 µM; in assay [2] it was 4.27 µM; in assay [3], 30 µM; in assay [8], 13.5 µM; in assay [5], 33.3 µM; in assay [6], 22.4 µM. In assay [7], this compound showed a TGI of 20 µM.

For the compound `CC(C)C[C@@H](NC(=O)[C@@H](Cc1ccccc1)NC(=O)c1cnccn1)B1O[C@H]2[C@H](O)[C@@H](C(=O)NCCCC[C@@H]3NC(=O)[C@@H](Cc4ccccc4)NC(=O)[C@H](CC(=O)O)NC(=O)CNC(=O)[C@H](CCCN=C(N)N)NC3=O)O[C@@H](CN)[C@H]2O1`, the GI50 in assay [1] was 0.00465 µM and 0.005 µM; in assay [2], 0.00347 µM and 0.005 µM; in assay [3], 0.0088 µM and 0.005 µM; in assay [8], 0.0124 µM and 0.00828 µM; in assay [5] it was 0.00766 µM and 0.005 µM; in assay [6], 0.0117 µM and 0.013 µM. In addition, the GI50 in assay [7] is 0.0136 µM and 0.005 µM. The TGI in assay [8] is 0.0574 µM and 0.0692 µM; in assay [5] it was 0.285 µM and 0.235 µM; in assay [6] it was 0.055 µM and 0.485 µM; in assay [7] it was 5.12 µM.

As for `CC(O)C1OC(O)C2OC(C)(C)OC12` (stereo not drawn), the TGI in assay [1], in assay [2], in assay [3], in assay [8], in assay [5] and in assay [6] was over 100 µM in each case. The compound further displayed a TGI in assay [7] of over 100 µM.

Regarding `c1ccc(N=C2c3ccccc3CN2c2ccccc2)cc1`, the TGI in assay [1], in assay [2], in assay [3], in assay [8], in assay [5] and in assay [6] was over 100 µM in each case. For the same compound, the TGI in assay [7] is over 100 µM.

Consider `COc1cc(/C=C(/C)[N+](=O)[O-])ccc1O`, for which the GI50 in assay [1] is 1.79 µM and 1.94 µM; in assay [2], 1.85 µM; in assay [3], 1.47 µM; in assay [8] it was 2.14 µM and 2.64 µM; in assay [5], 1.81 µM and 1.87 µM; in assay [6], 2.2 µM and 2.43 µM. Further, the GI50 in assay [7] is 4.55 µM and 5.02 µM. The TGI in assay [1] was 3.26 µM and 3.51 µM; in assay [2], 4.91 µM; in assay [3] it was over 100 µM; in assay [8] it was 5.5 µM and 7.44 µM; in assay [5], 3.87 µM and 3.88 µM; in assay [6], 5.98 µM and 9.43 µM. Further, the TGI in assay [7] was 16.2 µM and 17.5 µM.

As to `O=C(Nc1ccc(S(=O)(=O)Nc2nccs2)cc1)c1cccnc1Nc1cccc(Cl)c1`, the GI50 is 17.9 µM in assay [1]; 23.4 µM in assay [2]; 10.4 µM in assay [3]; 5.73 µM in assay [8]; 17.8 µM in assay [5]; 12.5 µM in assay [6]. For the same compound, in assay [7], the GI50 is 14.7 µM. The TGI was 39.9 µM in assay [1]; over 100 µM in assay [2]; 41.1 µM in assay [3]; 21.4 µM in assay [8]; 37.7 µM in assay [5]; 25.9 µM in assay [6]. This compound also gave a TGI in assay [7] of 34.4 µM.
